According to paper PMC11846289, “New tetrahydroisoquinolines bearing nitrophenyl group targeting HSP90 and RET enzymes: synthesis, characterization and biological evaluation” (BMC Chemistry, 2025):
≈ marks a conversion by molar mass, not a printed value.

How the values were obtained:
[1] = test system: CACO2 (colon carcinoma human); assay: one spot 100 µg/ml cytotoxicity, CACO2; assay type: cell-based; details: for inhibition at 100 µg/mL: Homo sapiens, Caco-2, percent inhibition, read-out: one spot concentration inhibition, CACO2
[2] = test system: HEPG2 (human liver carcinoma); assay: one spot 100 µg/ml cytotoxicity, HEPG2; assay type: cell-based; details: for inhibition at 100 µg/mL: Homo sapiens, HepG2, percent inhibition, read-out: one spot concentration inhibition, HEPG2
[3] = test system: HCT116 (colon carcinoma human); assay: one spot 100 µg/ml cytotoxicity, HCT116; assay type: cell-based; details: for inhibition at 100 µg/mL: Homo sapiens, HCT-116, percent inhibition, read-out: one spot concentration inhibition, HCT116
[4] = test system: MCF7 cell line; assay: MTT in vitro cytotoxicity, MCF7; assay type: cell-based, human; details: for Selectivity Index = IC50 of HSF/ IC50 of MCF7: HSF vs MCF7; for IC50: Homo sapiens, read-out: IC50 for MCF7 ± S.D
Protocol: (§1) Using the MTT test method, the in vitro cytotoxicity of our synthesized compounds at different doses ranging from […] was examined in two cell lines, HEPG2 and MCF7, to examine 50% of the cancer cells dying.
(§2) Some of the synthesized compounds were tested as anticancer activity for the IC50 against two cell lines HEPG2 and MCF7 cells according to method. All cell lines were obtained from national cancer institute, Cairo—Egypt.

[5] = test system: MG-63 (human osteosarcoma); assay: one spot 100 µg/ml cytotoxicity, MG-63; assay type: cell-based; details: for inhibition at 100 µg/mL: Homo sapiens, MG-63, percent inhibition, read-out: one spot concentration inhibition, MG-63
[6] = test system: HSF; assay: IC50 against normal cell line HSF; assay type: cell-based, human; details: normal skin cell line HSF; for IC50: Homo sapiens, read-out: IC50 FOR HSF ± S.D.
[7] = test system: HEPG2 cell line; assay: MTT in vitro cytotoxicity, HEPG2; assay type: cell-based, human; details: for Selectivity Index = IC50 of HSF/IC50 of HEPG2: HSF vs HEPG2; for IC50: Homo sapiens, read-out: IC50 for HEPG2 ± S.D
Protocol: as §1, §2

[8] = test system: normal human skin cell line (HSF); assay: one spot 100 µg/ml cytotoxicity, normal skin cell line HSF; assay type: cell-based; details: for cytotoxicity at 100 µg/mL / inhibition at 100 µg/mL: Homo sapiens; for cytotoxicity at 100 µg/mL: HSF, read-out: Inhibition percent of HSF cell line; for inhibition at 100 µg/mL: read-out: one spot concentration inhibition, HSF
[9] = test system: A549 (human lung carcinoma); assay: one spot 100 µg/ml cytotoxicity, A549; assay type: cell-based; details: for inhibition at 100 µg/mL: Homo sapiens, A549, percent inhibition, read-out: one spot concentration inhibition, A549
[10] = test system: HUH7 (human liver carcinoma); assay: one spot 100 µg/ml cytotoxicity, HUH7; assay type: cell-based; details: for inhibition at 100 µg/mL: Homo sapiens, Huh-7, percent inhibition, read-out: one spot concentration inhibition, HUH7
[11] = test system: H460 (human lung carcinoma); assay: one spot 100 µg/ml cytotoxicity, H460; assay type: cell-based; details: for inhibition at 100 µg/mL: Homo sapiens, NCI-H460, percent inhibition, read-out: one spot concentration inhibition, H460
[12] = test system: MCF7 (human breast carcinoma); assay: one spot 100 µg/ml cytotoxicity, MCF7; assay type: cell-based; details: for inhibition at 100 µg/mL: Homo sapiens, MCF7, percent inhibition, read-out: one spot concentration inhibition, MCF7

Structure (SMILES)	inhibition at 100 µg/mL [1] [%]	inhibition at 100 µg/mL [2] [%]	inhibition at 100 µg/mL [3] [%]	Selectivity Index = IC50 of HSF/ IC50 of MCF7 [4]	IC50 ([4]; MTT, MCF7) [µg/mL]	inhibition at 100 µg/mL [5] [%]	IC50 [6] [µg/mL]	Selectivity Index = IC50 of HSF/IC50 of HEPG2 [7]	IC50 ([7]; MTT, HEPG2) [µg/mL]	cytotoxicity at 100 µg/mL ([8]; one spot 100 µg/ml) [%]	inhibition at 100 µg/mL ([8]; 100 µg/ml, supplement Table S1) [%]	inhibition at 100 µg/mL [9] [%]	inhibition at 100 µg/mL [10] [%]	inhibition at 100 µg/mL [11] [%]	inhibition at 100 µg/mL [12] [%]	other results
CC(=O)C1C(c2cccc([N+](=O)[O-])c2)c2c(C)nc(SCC(=O)Nc3cccc4ccccc34)c(C#N)c2CC1(C)O (stereo not drawn) [Compound 8a, 2-[(7-Acetyl-4-cyano-1,6-dimethyl-6-hydroxy-8-(3-nitrophenyl)−5,6,7,8-tetrahydro-isoquinolin-3-yl)thio]-N-(naphthalen-1-yl)acetamide]	53.2	60	56.1	1.6	50 ± 0.019 (≈ 86.1 µM)	38.5	84 (≈ 145 µM)	0.95	88 ± 0.072 (≈ 152 µM)	59	56.9	46.2	25.9	59.6	72.4	–
CC(=O)C1C(c2ccc([N+](=O)[O-])cc2)c2c(C)nc3sc(C(=O)Nc4cccc5ccccc45)c(N)c3c2CC1(C)O (stereo not drawn) [Compound 9b, 7-Acetyl-1-amino-N-(naphthalen-1-yl)−5,8-dimethyl-8-hydroxy-6-(4-Nitrophenyl)−6,7,8,9-tetrahydrothieno[2,3-c]isoquinoline-2-carboxamide]	51.7	70	55.6	1.1	80 ± 0.05 (≈ 138 µM)	30.2	86 (≈ 148 µM)	0.98	87 ± 0.61 (≈ 150 µM)	58	56.2	45	35.7	58	55.2	–
CC(=O)c1ccc(NC(=O)CSc2nc(C)c3c(c2C#N)CC(C)(O)C(C(C)=O)C3c2cccc([N+](=O)[O-])c2)cc1 (stereo not drawn) [Compound 6a, 2-[(7-Acetyl-4-cyano-1,6-dimethyl-6-hydroxy-8-(3-nitrophenyl)−5,6,7,8-tetra-hydroisoquinolin-3-yl)thio]-N-(4-acetylphenyl)acetamide]	54.8	59.5	58.1	> 2	21 ± 0.057 (≈ 36.7 µM)	45.8	89 (≈ 155 µM)	–	> 100	56	53.5	20.3	38.6	63.5	66.4	Selectivity Index = IC50 of HSF/ IC50 of MCF7 ([4]; listed as 6A): 4.2
CC(=O)C1C(c2ccc([N+](=O)[O-])cc2)c2c(C)nc(SCC#N)c(C#N)c2CC1(C)O (stereo not drawn) [Compound 5, 2-[(7-Acetyl-4-cyano-1,6-dimethyl-6-hydroxy-8-(4-nitrophenyl)−5,6,7,8-tetra-hydroisoquinolin-3-yl)thio]acetoonitriile]	61.5	68.2	58.9	2.1	33 ± 0.042 (≈ 75.6 µM)	55.7	71 (≈ 163 µM)	0.73	97 ± 0.053 (≈ 222 µM)	70	66.8	55.2	35.5	66.6	67.6	–
CC(=O)C1C(c2cccc([N+](=O)[O-])c2)c2c(C)[nH]c(=S)c(C#N)c2CC1(C)O (stereo not drawn) [Compound 2a, 7-Acetyl-4-cyano-1,6-dimethyl-6-hydroxy-8-(3-nitrophenyl)−5,6,7,8-tetra-hydroisoquinoline-3(2H)-thione]	55.1	61.3	62.3	> 2	35 ± 0.061 (≈ 88.1 µM)	41.9	100 (≈ 252 µM)	1.2	82 ± 0.054 (≈ 206 µM)	48	46.2	42.4	27.4	55.3	74	Selectivity Index = IC50 of HSF/ IC50 of MCF7 ([4]; listed as 2A): 2.8
CCOC(=O)CSc1nc(C)c2c(c1C#N)CC(C)(O)C(C(C)=O)C2c1cccc([N+](=O)[O-])c1 (stereo not drawn) [Compound 4, Ethyl 2-[(7-acetyl-4-cyano-1,6-dimethyl-6-hydroxy-8-(3-nitrophenyl)−5,6,7,8-tetra-hydroisoquinolin-3-yl)thio]acetate]	64.4	62.1	56.8	2.1	47 ± 0.055 (≈ 97.2 µM)	53.8	100 (≈ 207 µM)	1.2	80 ± 0.07 (≈ 165 µM)	50	49.4	47.2	27.5	66.8	76.3	–
CC(=O)c1ccc(NC(=O)c2sc3nc(C)c4c(c3c2N)CC(C)(O)C(C(C)=O)C4c2cccc([N+](=O)[O-])c2)cc1 (stereo not drawn) [Compound 7a, 7-Acetyl-N-(4-acetylophenyl)−1-amino-5,8-dimethyl-8-hydroxy-6-(3-nitro-phenyl)−6,7,8,9-tetrahydrothieno[2,3-c]isoquinoline-2-carboxamide]	–	–	–	1.8	–	–	–	0.92	–	–	–	–	–	–	–	one spot concentration inhibition, CACO2 ([1]; percent inhibition): 58.2%; one spot concentration inhibition, HEPG2 ([2]; percent inhibition): 58.67%; one spot concentration inhibition, HCT116 ([3]; percent inhibition): 59.7%; IC50 for MCF7 ± S.D ([4]; MTT, MCF7): 50 ± 0.031 µg/mL; one spot concentration inhibition, MG-63 ([5]; percent inhibition): 50.44%; IC50 FOR HSF ± S.D. [6]: 90 µg/mL (≈ 157 µM); IC50 for HEPG2 ± S.D ([7]; MTT, HEPG2): 97 ± 0.054 µg/mL; one spot concentration inhibition, HSF ([8]; 100 µg/ml, supplement Table S1): 51.85%; Inhibition percent of HSF cell line ([8]; one spot 100 µg/ml): 55%; one spot concentration inhibition, A549 ([9]; percent inhibition): 46.81%; one spot concentration inhibition, HUH7 ([10]; percent inhibition): 32.35%; one spot concentration inhibition, H460 ([11]; percent inhibition): 59.87%; one spot concentration inhibition, MCF7 ([12]; percent inhibition): 57.92%
CC(=O)C1C(c2cccc([N+](=O)[O-])c2)c2c(C)nc3sc(C(=O)Nc4nc5ccccc5s4)c(N)c3c2CC1(C)O (stereo not drawn) [Compound 10, 7-Acetyl-1-amino-N-(benzthiazol-2-yl)−5,8-dimethyl-8-hydroxy-6-(3-nitrophenyl)−6,7,8,9-tetrahydrothieno[2,3-c]isoquinoline-2-carboxamide]	60.6	55.2	59.2	–	> 100	46.7	89 (≈ 151 µM)	–	> 100	56	54.7	47.4	21.8	63.3	75.4	–
CC(=O)C1C(c2ccc([N+](=O)[O-])cc2)c2c(C)nc(SCC(=O)Nc3cccc4ccccc34)c(C#N)c2CC1(C)O (stereo not drawn) [Compound 8b, 2-[(7-Acetyl-4-cyano-1,6-dimethyl-6-hydroxy-8-(4-nitrophenyl)−5,6,7,8-tetrahydro-isoquinolin-3-yl)thio]-N-(naphthalen-1-yl)acetamide]	41.7	66.6	67.5	> 2	12 ± 0.056 (≈ 20.7 µM)	57.5	100 (≈ 172 µM)	1.1	94 ± 0.82 (≈ 162 µM)	50	48.2	15.2	30.2	62	57.2	Selectivity Index = IC50 of HSF/ IC50 of MCF7 ([4]; listed as 8B): 8.3
COc1cccc2c1C(=O)c1c(O)c3c(c(O)c1C2=O)C[C@@](O)(C(=O)CO)C[C@@H]3O[C@H]1C[C@H](N)[C@H](O)[C@H](C)O1 [Doxorubicin, reference compound]	74.8	58.9	70.9	18.1	4.58 ± 0.081 (≈ 8.43 µM)	63.8	83 (≈ 153 µM)	20.1	4.13 ± 0.054 (≈ 7.6 µM)	60	58.9	32	52.8	72.9	74	–
